From PubChem BioAssay AID328 (DTP/NCI, 2004)
Where “and” joins values, the source holds several entries; their conditions need not be identical. Equal entries are not always repeated. Toxic doses and inconclusive results are not listed.

Test system: BDF1 mice, P388 leukemia ip, median survival T/C
Assay: NCI In Vivo Anticancer Drug Screen. Data for tumor model P388 Leukemia (intraperitoneal) in B6D2F1 (BDF1) mice
Settings: endpoint: median survival time, higher = longer survival
Summary of the method: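 Survival ratio, drug arm over vehicle arm, in mice with a transplanted tumour.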

[1] = dose: 25.0 mg/kg/injection, schedule: Q01DX009 (ip), vehicle: saline with Tween-80
[2] = dose: 100.0 mg/kg/injection, schedule: Q01DX009 (ip), vehicle: saline with Tween-80
[3] = dose: 200.0 mg/kg/injection, schedule: Q01DX009 (ip), vehicle: saline with Tween-80
[4] = dose: 50.0 mg/kg/injection, schedule: Q01DX009 (ip), vehicle: saline
[5] = dose: 50.0 mg/kg/injection, schedule: Q04DX003 (ip), vehicle: saline
[6] = dose: 100.0 mg/kg/injection, schedule: Q04DX003 (ip), vehicle: saline

## COc1cccc2c1C(=N)c1c(O)c3c(c(O)c1C2=O)C[C@@](O)(C(C)=O)C[C@@H]3OC1CC(N)C(O)C(C)O1 (stereo partly specified)
dose: 3.46 mg/kg/injection, schedule: Q04DX003 (ip), vehicle: saline
  T/C: 177 % of control
dose: 5.76 mg/kg/injection, schedule: Q04DX003 (ip), vehicle: saline
  T/C: 186 % of control
dose: 9.6 mg/kg/injection, schedule: Q04DX003 (ip), vehicle: saline
  T/C: 180 % of control

## N=c1ccn2c(n1)OC1C(O)C(COS(=O)OC3C(CO)OC4C3Oc3nc(=N)ccn34)OC12 (stereo unspecified)
[1]
  T/C: 122 % of control
[2]
  T/C: 161 % of control
[3]
  T/C: 175 % of control

## COc1cccc(Sc2ccc([N+](=O)[O-])c3nonc23)c1
dose: 12.5 mg/kg/injection, schedule: Q01DX009 (ip), vehicle: saline with Tween-80
  T/C: 102 % of control
[1]
  T/C: 107 % of control

## CCCC(C(CC)CO)C(CC)C(O)C(CC)CO (stereo unspecified)
dose: 50.0 mg/kg/injection, schedule: Q01DX005 (ip), vehicle: saline with Tween-80
  T/C: 100 % of control
dose: 100.0 mg/kg/injection, schedule: Q01DX005 (ip), vehicle: saline with Tween-80
  T/C: 94 % of control
dose: 200.0 mg/kg/injection, schedule: Q01DX005 (ip), vehicle: saline with Tween-80
  T/C: 99 % of control

## COC1=C(N)C(=O)c2nc(-c3nc(C(=O)O)c(C)c(-c4ccc(OC)c(OC)c4O)c3N)ccc2C1=O
dose: 0.01 mg/kg/injection, schedule: Q01DX010 (ip), vehicle: saline
  T/C: 110 % of control
dose: 0.02 mg/kg/injection, schedule: Q01DX009 (ip), vehicle: other
  T/C: 118 % of control
dose: 0.03 mg/kg/injection, schedule: Q01DX009 (ip), vehicle: dioxane
  T/C: 97 % of control
dose: 0.03 mg/kg/injection, schedule: Q01DX009 (ip), vehicle: saline
  T/C: 114 % of control
dose: 0.04 mg/kg/injection, schedule: Q01DX009 (ip), vehicle: dioxane
  T/C: 99 % of control and 100 % of control
dose: 0.05 mg/kg/injection, schedule: Q01DX009 (ip), vehicle: dioxane
  T/C: 114 % of control
dose: 0.05 mg/kg/injection, schedule: Q01DX009 (ip), vehicle: saline
  T/C: 161 % of control
dose: 0.05 mg/kg/injection, schedule: Q01DX010 (ip), vehicle: water
  T/C: 118 % of control
dose: 0.05 mg/kg/injection, schedule: Q04DX002 (ip), vehicle: saline
  T/C: 112 % of control
dose: 0.06 mg/kg/injection, schedule: Q01DX009 (ip), vehicle: dioxane
  T/C: 114 % of control
dose: 0.1 mg/kg/injection, schedule: Q01DX009 (ip), vehicle: saline
  T/C: 152 % of control
dose: 0.1 mg/kg/injection, schedule: Q01DX010 (ip), vehicle: saline
  T/C: 118 % of control
dose: 0.1 mg/kg/injection, schedule: Q04DX003 (ip), vehicle: other
  T/C: 118 % of control
dose: 0.13 mg/kg/injection, schedule: Q01DX009 (oral), vehicle: other
  T/C: 109 % of control
dose: 0.2 mg/kg/injection, schedule: Q01DX001 (ip), vehicle: other
  T/C: 118 % of control
dose: 0.2 mg/kg/injection, schedule: Q01DX010 (ip), vehicle: water
  T/C: 118 % of control
dose: 0.2 mg/kg/injection, schedule: Q04DX002 (ip), vehicle: saline
  T/C: 114 % of control
dose: 0.2 mg/kg/injection, schedule: Q04DX003 (ip), vehicle: other
  T/C: 118 % of control
dose: 0.2 mg/kg/injection, schedule: Q08DX002 (ip), vehicle: other
  T/C: 118 % of control
dose: 0.25 mg/kg/injection, schedule: Q01DX009 (oral), vehicle: other
  T/C: 109 % of control
dose: 0.4 mg/kg/injection, schedule: Q01DX001 (ip), vehicle: other
  T/C: 118 % of control
dose: 0.5 mg/kg/injection, schedule: Q01DX001 (ip), vehicle: other
  T/C: 122 % of control
dose: 0.5 mg/kg/injection, schedule: Q01DX009 (oral), vehicle: other
  T/C: 109 % of control
dose: 0.5 mg/kg/injection, schedule: Q03HX008 (ip), vehicle: other
  T/C: 109 % of control
dose: 0.5 mg/kg/injection, schedule: Q04DX003 (ip), vehicle: other
  T/C: 116 % of control
dose: 0.8 mg/kg/injection, schedule: Q01DX001 (ip), vehicle: other
  T/C: 113 % of control
dose: 0.8 mg/kg/injection, schedule: Q01DX009 (ip), vehicle: saline
  T/C: 117 % of control
dose: 0.8 mg/kg/injection, schedule: Q04DX003 (ip), vehicle: other
  T/C: 118 % of control
dose: 0.8 mg/kg/injection, schedule: Q08DX002 (ip), vehicle: other
  T/C: 109 % of control
dose: 1.0 mg/kg/injection, schedule: Q01DX001 (ip), vehicle: other
  T/C: 109 % of control
dose: 1.0 mg/kg/injection, schedule: Q01DX001 (oral), vehicle: other
  T/C: 118 % of control
dose: 1.0 mg/kg/injection, schedule: Q01DX009 (oral), vehicle: other
  T/C: 100 % of control
dose: 1.0 mg/kg/injection, schedule: Q03HX008 (ip), vehicle: other
  T/C: 109 % of control
dose: 1.0 mg/kg/injection, schedule: Q08DX002 (ip), vehicle: other
  T/C: 100 % of control
dose: 2.0 mg/kg/injection, schedule: Q01DX001 (oral), vehicle: other
  T/C: 100 % of control
dose: 2.0 mg/kg/injection, schedule: Q01DX009 (oral), vehicle: other
  T/C: 95 % of control
dose: 4.0 mg/kg/injection, schedule: Q01DX001 (oral), vehicle: other
  T/C: 95 % of control
dose: 31.2 micrograms/kg/injection, schedule: Q01DX009 (ip), vehicle: other
  T/C: 116 % of control
dose: 62.5 micrograms/kg/injection, schedule: Q03HX016 (ip), vehicle: other
  T/C: 116 % of control
dose: 62.5 micrograms/kg/injection, schedule: Q03HX024 (ip), vehicle: other
  T/C: 116 % of control
dose: 125.0 micrograms/kg/injection, schedule: Q03HX016 (ip), vehicle: other
  T/C: 100 % of control
dose: 125.0 micrograms/kg/injection, schedule: Q03HX024 (ip), vehicle: other
  T/C: 91 % of control
dose: 250.0 micrograms/kg/injection, schedule: Q01DX009 (ip), vehicle: other
  T/C: 116 % of control
dose: 667.0 micrograms/kg/injection, schedule: Q04DX003 (ip), vehicle: alkali diluted with saline
  T/C: 120 % of control

## CCn1c(O)c(C=N)c(=O)n(CC)c1=O
dose: 25.0 mg/kg/injection, schedule: Q01DX009 (ip), vehicle: saline
  T/C: 100 % of control
dose: 25.0 mg/kg/injection, schedule: Q04DX003 (ip), vehicle: saline
  T/C: 96 % of control
[4]
  T/C: 104 % of control
[5]
  T/C: 100 % of control
[6]
  T/C: 103 % of control

## O=C(O)c1ccc2cc(O)ccc2c1
dose: 50.0 mg/kg/injection, schedule: Q01DX001 (ip), vehicle: saline with Tween-80
  T/C: 100 % of control
[4]
  T/C: 116 % of control
[5]
  T/C: 109 % of control
dose: 100.0 mg/kg/injection, schedule: Q01DX001 (ip), vehicle: saline with Tween-80
  T/C: 113 % of control
dose: 100.0 mg/kg/injection, schedule: Q01DX009 (ip), vehicle: saline
  T/C: 116 % of control
[6]
  T/C: 109 % of control
dose: 200.0 mg/kg/injection, schedule: Q01DX001 (ip), vehicle: saline with Tween-80
  T/C: 100 % of control
dose: 200.0 mg/kg/injection, schedule: Q01DX009 (ip), vehicle: saline
  T/C: 104 % of control
dose: 200.0 mg/kg/injection, schedule: Q04DX003 (ip), vehicle: saline
  T/C: 100 % of control

## CC1=CC2=NC(=O)C(c3ccccc3)C(=O)N2C=C1 (stereo unspecified)
dose: 25.0 mg/kg/injection, schedule: Q01DX009 (ip), vehicle: Klucel (hydroxypropylcellulose) (HPC)
  T/C: 100 % of control
dose: 25.0 mg/kg/injection, schedule: Q04DX003 (ip), vehicle: Klucel (hydroxypropylcellulose) (HPC)
  T/C: 100 % of control
dose: 50.0 mg/kg/injection, schedule: Q01DX009 (ip), vehicle: Klucel (hydroxypropylcellulose) (HPC)
  T/C: 105 % of control
dose: 50.0 mg/kg/injection, schedule: Q04DX003 (ip), vehicle: Klucel (hydroxypropylcellulose) (HPC)
  T/C: 100 % of control
dose: 100.0 mg/kg/injection, schedule: Q01DX009 (ip), vehicle: Klucel (hydroxypropylcellulose) (HPC)
  T/C: 115 % of control
dose: 100.0 mg/kg/injection, schedule: Q04DX003 (ip), vehicle: Klucel (hydroxypropylcellulose) (HPC)
  T/C: 100 % of control
dose: 400.0 mg/kg/injection, schedule: Q04DX003 (ip), vehicle: Klucel (hydroxypropylcellulose) (HPC)
  T/C: 88 % of control

## CCOC(=O)c1cc2nc3ccccn3c(=O)c2cc1N
[2]
  T/C: 100 % of control
[3]
  T/C: 91 % of control

## CCCCCCC(O)CCc1ccccc1 (stereo unspecified)
dose: 100.0 mg/kg/injection, schedule: Q01DX001 (ip), vehicle: Klucel (hydroxypropylcellulose) (HPC)
  T/C: 100 % of control
dose: 200.0 mg/kg/injection, schedule: Q01DX001 (ip), vehicle: Klucel (hydroxypropylcellulose) (HPC)
  T/C: 95 % of control
dose: 400.0 mg/kg/injection, schedule: Q01DX001 (ip), vehicle: Klucel (hydroxypropylcellulose) (HPC)
  T/C: 104 % of control
